In brackets after ≈: the same amount, converted by molar mass. Entries after “also recorded” stand apart in the source; their conditions may differ.
Assays:
ai5γ group II intron = assay: Radioanalytic self-splicing assay of SE RNA (Ki); assay type: biochemical, Saccharomyces cerevisiae; conditions: 8 mM MgCl2, 100 mM KCl, pH 7.5, 30° C.
Experimental: Internally labeled SE RNA (2 nM) was incubated with various concentrations of inhibitor compound under near-physiological conditions (in 50 mM MOPS, pH 7.5, 8 mM MgCl2, 100 mM KCl) at 30° C. Aliquots at different time points were quenched and analyzed on 5% denaturing polyacrylamide gel as previously described (Daniels et al., 1996, Journal of molecular biology, 256:31-49). Data were fit to a single-exponential equation to determine the first order rate constants (kobs). The latter were then plotted against the concentration of the inhibitor and fit to the equation for non-competitive inhibition to determine Ki values: kobs=kmax/(1+[I]/Ki), where kobs and kmax are the first order rate constants measured in the presence and in the absence of the inhibitor, respectively, [I] is the concentration of the inhibitor and Ki is the inhibition constant. Experiments were performed four times for API-014, three times for APY-090, Intronistat A, and Intronistat B and twice for the remaining compounds to ensure reproducibility. Data represent average±s.e.m.

C. parapsilosis = assay: MIC determination against C. parapsilosis; assay type: cell-based, Candida parapsilosis; conditions: Lodderomyces parapsilosis; RPMI-1640, 35° C. or 37° C., turbidity after 24 and 48 hours
Experimental: Minimal inhibitory concentrations (MICs) for C. parapsilosis were determined in a final volume of 100 μl. Fresh stock solutions of control antifungal drugs (Amphotericin B and Itraconazole) and of test compounds were prepared at 3.2 mg/ml and at 12.8 mg/ml respectively in DMSO. After placing the stock in the first well, solutions of test compounds and antifungal controls were serially diluted 1:2 with DMSO into the first […] successive wells of a 12-well row on a 96-well plate (as described above). After dilution, 2.5 μl from each of these 10 wells were transferred onto a separate 96-well plate and diluted with 122.5 μl of RPMI-1640 medium (Sigma). Wells 11 and 12 contained 2.5 μl DMSO and 122.5 μl of RPMI-1640 as a positive growth control (no compound) and sterility control (no inoculum added). A 50 μl volume was taken from each of the RPMI dilutions (wells 1-12) and transferred to the wells of a third 96-well plate (assay plate), where they were mixed with an equal volume (50 μl) of freshly prepared inoculum of C. parapsilosis in RPMI-1640 medium, set at a density to provide the 0.5×10^3 to 2.5×10^3 colony forming units per 1 mL (except for the sterility control). Sterility control was mixed with 50 μl of sterile medium.
The final concentration range of the assay was 0.25-128 μg/ml for test compounds and 0.0625-32 μg/ml for Amphotericin B and Itraconazole. The final concentration of DMSO was 1%. The assay plate was incubated at 35° C. or 37° C. and visually analyzed for turbidity after 24 and 48 hours of incubation. The lowest compound concentration at which no growth was apparent is reported as the MIC. All experiments were performed in triplicate.

HEK-293T cells = assay: Cytotoxicity in HEK-293T cells (Cell Titer Glo); assay type: cell-based, human; conditions: Homo sapiens, cytotoxicity, 24 hours with compound, read-out: IC50 HEK-293
Experimental: HEK-293T cells were cultured in Dulbecco's Modified Eagle's Medium (DMEM) (Gibco) supplemented with 10% Fetal Bovine Serum (FBS, Gibco) and 100 U/ml of Penicillin-Streptomycin (Gibco) at 37° C. and 5% CO2. For the cytotoxicity experiments, cells were aliquoted into black 96-well plates with a clear bottom (Corning 3603) at a concentration of 10,000 cells per well. The cells were grown at 37° C., 5% CO2 for 5-6 hours, then the medium was replaced with the same medium without FBS and cells were grown at 37° C., 5% CO2 for 24 hours. Freshly prepared stock solutions of test compounds (12.8 mg/ml in DMSO) were serially diluted 1:2 with DMSO into the first 11 successive wells of a 12-well row on a 96-well plate as described above. Well 12 was used as a growth control (no compound). […] After incubation, cell viability was determined using the luminescent Cell Titer Glo cell viability assay (Promega), in which 100 μl of the assay reagent was added to each well of the assay plate. After gentle shaking for 7-10 minutes, the plates were analyzed on a Synergy H1 plate reader (BioTek). Luminescence was plotted against the compound concentration and IC50 values were determined by fitting the data to a 4-parameter logistic function c+(d−c)/(1+(x/a)^b), where a is the IC50, b is the slope parameter, c is the minimum response and d is the maximum response. Experiments were replicated to ensure reproducibility.

[1] = system: ai5γ group II intron (D135 ribozyme); assay: Fluorescent D135 ribozyme cleavage assay (IC50); assay type: biochemical, Saccharomyces cerevisiae; conditions: for IC50: D135 ribozyme cleavage of substrate 17/2 DL, 100 mM MgCl2, 500 mM KCl, 37° C., 10 minutes
Experimental: The D135 ribozyme (Su et al., 2005, Nucleic Acids Res, 33:6674-6687), fluorescently labeled oligo substrate 17/2 DL (FIG. 1A-FIG. 1D) (both at 20 nM final concentrations in 50 mM MOPS, pH 7.0, 100 mM MgCl2, 0.5M KCl), and the test compounds (final concentration of 10 μM in 50 mM MOPS, pH 7.0, 100 mM MgCl2, 0.5M KCl) were aliquoted onto black non-binding 384-well plates (Corning 3757) using the multidrop combi (ThermoFisherScientific) and pintool (V & P Scientific). The reaction mixtures were incubated at 37° C. for 45 minutes, then the reaction was quenched with 100 mM EDTA and fluorescence intensity was analyzed on a Tecan Infinite multimode plate reader (λex 520 nm, λem 560 nm, 5 nm bandwidth). Data were normalized to untreated wells and wells lacking the D135 ribozyme, and percent of inhibition was calculated using ActivityBase (IDBS). The Z′-factor was calculated as described (Zhang et al., 1999, J Biomol Screen, 4:67-73): Z′=1−3×(σp+σn)/|μp−μn|, • where μp and σn are mean value and standard deviation for the positive control (substrate only), and where μn and σn are mean value and standard deviation for the negative control (no compound). The average Z′-factor from the screen was 0.83±0.03. IC50 Measurement for the Small Molecule Inhibition of the D135 Ribozyme Cleavage Reaction.
Black 96-well plates (Corning 3695) were filled with 50 μl of solution containing 20 nM D135 ribozyme, 20 nM double-labeled substrate 17/2 DL and small molecule inhibitor in 50 mM MOPS, pH 7.0, 100 mM MgCl2 and 500 mM KCl. Small molecule inhibitors were tested at 19 different concentrations ranging from 5 nM to 1 mM. Plates were incubated at 37° C. for 10 minutes, then reaction mixtures were quenched with 100 mM EDTA and analyzed on the Synergy H1 plate reader (BioTek). Each experiment was performed in triplicate. Data were fit to a 4-parameter logistic function c+(d−c)/(1+(x/a)^b), where a is the IC50, b is the slope parameter, c is the minimum response and d is the maximum response. Data are reported as average±s.e.m

Structure (SMILES)	Ki (ai5γ group II intron) [µM]	MIC (C. parapsilosis) [µg/mL]	IC50 (HEK-293T cells) [µg/mL]	IC50 [1] [µM]	In vitro inhibitory activity, SAR statement (in words) ([1]; relative to parent scaffold)	IC50 ([1]; listed as compound 1) [µM]
O=C1/C(=C/c2ccc(B(O)O)cc2)Oc2cc(O)cc(O)c21 [APY-006]	55					
O=C1/C(=C/c2ccc(O)c(O)c2)Oc2cc(O)cc(O)c21 [APY-007, (Z)-2-(3,4-Dihydroxybenzylidene)-4,6-dihydroxybenzofuran-3(2H)-one]	156 ± 34	> 128	> 128	> 100	nearly complete loss of activity; also recorded: inactivated both in vitro and in vivo	
O=C1/C(=C/c2cc(F)c(O)c(F)c2)Oc2cc(O)cc(O)c21 [APY-010]	140	> 128	0.55			
O=C1/C(=C/c2cc(O)c(O)c(O)c2)Oc2cc(O)ccc21 [APY-013]	16.5	32 (≈ 112 µM)	19	16.7		
COc1cccc(/C=N/NC(=O)c2ccc(B(O)O)cc2)c1O [APY-018]	660					
O=C(N/N=C/c1ccccc1O)c1cc(O)c(O)c(O)c1 [APY-021]	9.4	32 (≈ 111 µM)		14		
O=C(N/N=C/c1ccc(O)cc1O)c1cc(O)c(O)c(O)c1 [APY-022]	6.5	32 (≈ 105 µM)	17.6	5.5		
COc1cc(/C=N/NC(=O)c2cc(O)c(O)c(O)c2)cc(O)c1O [APY-038]	1.1	8 (≈ 23.9 µM)	15.9	1.3		
COc1cc(CCC(=O)c2cc(O)c(O)c(O)c2)cc(OC)c1OC [APY-069]	29	32 (≈ 91.9 µM)	> 128	27		
O=C(c1cc(O)c(O)c(O)c1)c1cc2cc(F)ccc2o1 [APY-070]	1	32 (≈ 111 µM)	> 128	4.2		
O=C(c1cc(O)c(O)c(O)c1)c1cc2c(ccc3ccccc32)o1 [APY-071]	0.15	16 (≈ 50 µM)	6	0.3		
O=C1/C(=C/c2cc(O)c(O)c(O)c2)Oc2cc(O)cc(O)c21 [Compound 1, reference compound]	2.1 ± 0.6			2.3 ± 0.4		2
CN1CCC(CNC(=O)c2ccc3oc(C(=O)c4cc(O)c(O)c(O)c4)cc3c2)CC1 [NED-2023, N-((1-methylpiperidin-4-yl)methyl)-2-(3,4,5-trihydroxybenzoyl)-benzofuran-5-carboxamide]		16 (≈ 37.7 µM)	36	6 ± 2		
CCCCNc1nc(-c2cc(O)c(O)c(O)c2)cs1 [NED-2034]		8 to 16 (≈ 28.5 to 57.1 µM)	22	> 1000		
O=C(Nc1cc(O)c(O)c(O)c1)N1CCN(c2ccc(Cl)c(Cl)c2)CC1 [NED-2035]		> 128	1.6	55 ± 4		
COc1ccc(/C=N/NC(=O)c2cc(O)c(O)c(O)c2)c(OC)c1 [NED-2036, N′-(2,4-dimethoxybenzylidene)-3,4,5-trihydroxybenzohydrazide]		8 (≈ 24.1 µM)	8.2	14 ± 1		
O=C(N/N=C/c1c(O)ccc2ccccc12)c1cc(O)c(O)c(O)c1 [NED-2037, (E)-3,4,5-trihydroxy-N′-((2-hydroxynaphthalen-1-yl)methylene)benzohydrazide]		16 (≈ 47.3 µM)	2.8	1.8 ± 0.5		
Cc1[nH]c(/C=C/C(=O)c2cc(O)c(O)c(O)c2)c(C)c1C(=O)N1CCN(Cc2ccc(F)cc2)CC1 [NED-2040]		8 (≈ 16.2 µM)	7.5	> 1000		
CN(C)c1ccc(/C=N/NC(=O)c2cc(O)c(O)c(O)c2)cc1 [NED-2048, (E)-N′-(4-(dimethylamino)benzylidene)-3,4,5-trihydroxybenzohydrazide]		4 to 8 (≈ 12.7 to 25.4 µM)	9.8	4 ± 1		
O=C(N/N=C/c1cccc2ccccc12)c1cc(O)c(O)c(O)c1 [NED-2134, (E)-3,4,5-trihydroxy-N′-(naphthalen-1-ylmethylene)benzohydrazide]		2 to 4 (≈ 6.21 to 12.4 µM)	4.2	3.3 ± 1		
O=C(N/N=C/c1ccc2ccccc2c1)c1cc(O)c(O)c(O)c1 [NED-2135, (E)-3,4,5-trihydroxy-N′-(naphthalen-2-ylmethylene)benzohydrazide]		2 (≈ 6.21 µM)	2.4	0.8 ± 0.2		
COc1ccc2cc(/C=N/NC(=O)c3cc(O)c(O)c(O)c3)ccc2c1 [NED-2136]		2 (≈ 5.68 µM)	1	1.35 ± 0.15		
COc1ccc2ccccc2c1/C=N/NC(=O)c1cc(O)c(O)c(O)c1 [NED-2173, (E)-3,4,5-trihydroxy-N′-((2-methoxynaphthalen-1-yl)methylene)benzohydrazide]		8 (≈ 22.7 µM)	8.6	6 ± 1		
C#CCOc1ccc2ccccc2c1/C=N/NC(=O)c1cc(O)c(O)c(O)c1 [NED-2174, (E)-3,4,5-trihydroxy-N′-((2-(prop-2-yn-1-yloxy)naphthalen-1-yl)methylene)benzohydrazide]		4 to 8 (≈ 10.6 to 21.3 µM)	2.7	5 ± 1		
O=C(N/N=C/c1c(OCc2ccccn2)ccc2ccccc12)c1cc(O)c(O)c(O)c1 [NED-2175, (E)-3,4,5-trihydroxy-N′-((2-(pyridin-2-ylmethoxy)naphthalen-1-yl)methylene)benzohydrazide]		4 to 8 (≈ 9.31 to 18.6 µM)	14	2.3 ± 0.8		

From patent US12421257B2, “Compositions and methods for inhibiting group II intron RNA” (YALE UNIVERSITY, priority 2018, dated 2025)
